Entries after “also recorded” stand apart in the source; their conditions may differ. *1 amine or outer side, *2 acyl side, *3 side chain or, on linkers, in order; H or OH if unused. [ ]: non-standard residue; d: D form. PEG (Jeffamine) = not defined here; Suc = O=C(CCC(=O)[*:2])[*:1]
How the values were obtained:
[1] = tested on: muscle cells from amyotrophic lateral sclerosis (ALS); experiment: Desmin positive cell proliferation, muscle cells from amyotrophic lateral sclerosis (ALS); type: cell-based, human; conditions: for desmin positive cells as percentage of total cells: peptide alone, 10 ng/ml, mean±s.d.
From the text: (§1) Human primary muscle cell cultures were isolated as previously described [Lewis et al., 2000; Sinanan et al., 2004]. Briefly, following informed consent, craniofacial (masseter) muscle biopsies were obtained from healthy adult and CMD patients during elective surgery at the Eastman and Middlesex Hospitals, London, UK. Human lower limb (vastus lateralis) muscle samples were obtained from consenting, adult healthy, FSHD and ALS patients by needle biopsy under local anaesthesia at the Royal Free Hospital, London, UK. Biopsies were pooled from several patients with the same disorder to obtain sufficient cell numbers in the primary cultures. These were washed with antibiotic (penicillin, 100 U/ml; streptomycin, 100 μg/ml; fungizone, 2.5 μg/ml; Invitrogen) supplemented DMEM (high glucose; Invitrogen), scissor-minced and tissue fragments plated into 0.2% gelatin-coated (Sigma-Aldrich) T150 cm^2 culture flasks (Helena Biosciences). Explant cultures were incubated in serum-containing Growth Media (sGM), composed of DMEM, 20% FCS (PAA Laboratories), penicillin (100 U/ml) and streptomycin ([…]) (Invitrogen), and maintained at 37° C. in humidified 95% air with 5% CO2. The first wave of migration of mononuclear cells from the explant was designated the […]-wave and this population was used throughout this study. Migratory human muscle cell were enzymatically harvested using trypsin-EDTA (Invitrogen) and subcultured in sGM until 70-80% confluency. Passage number x (Px), was defined as the xth sequential harvest of subconfluent cells. All experiments were performed using P3-5 cohorts. The expanded cells were then stored under cryogenic conditions until they were used in the experiments described below. At least 6 runs were made for each of the treatments used for each diseased muscle culture as well as for the two types of healthy muscle.
(§2) Assessment of the number of myogenic precursors was performed as described previously (Sinanan et al., 2004). Cells were re-plated on gelatin-coated (0.2%) 13 mm coverslips at an initial density of 4.5×10^3 cells cm^−2. […]
(§3) At the appropriate time-points, cells were fixed with methanol for 10 min (−20° C.), followed by detergent permeabilization with 0.5% Triton-X100 for 10-15 min. […] Cell-associated fluorescence and morphology, were visualized by epi-fluorescence and Leica Modulation Contrast (LMC) microscopy respectively, using an inverted Leica DMIRB microscope equipped with Leica FW4000 image processing software. For the proliferation assay, all blue and green fluorescent positive cells were counted in a field. […]

[2] = tested on: primary cultures derived from congenital muscular dystrophy (CMD); experiment: Desmin positive cell proliferation, primary cultures from congenital muscular dystrophy (CMD); type: cell-based, human; conditions: for desmin positive cells as percentage of total cells: peptide alone, 10 ng/ml, mean±s.d.
From the text: as §1, §2, §3

[3] = tested on: dystrophic muscles of the mdx mouse; experiment: Intramuscular injection into dystrophic muscle of mdx mice, tetanic force; type: in vivo; conditions: i.m. two per week for three weeks
Description: Greater increases, of up to around 35% (FIGS. 3A, 3B), were recorded for intramuscular injections (two per week for three weeks) in the dystrophic muscles of the mdx mouse, which has the same type of mutation as that in human Duchenne muscular dystrophy.

muscle cells from FSHD = experiment: Desmin positive cell proliferation, muscle cells from FSHD; type: cell-based, human; conditions: for desmin positive cells as percentage of total cells: peptide alone, 10 ng/ml, mean±s.d.
From the text: as §1, with “The expanded cells were then stored under cryogenic conditions until they were used in the experiments described below. At least 6 runs were made for each of the treatments used for each diseased muscle culture as well as for the two types of healthy muscle.” left out
as §3

[4] = tested on: normal craniofacial (masseter) primary cultures; experiment: Desmin positive cell proliferation, normal craniofacial (masseter) primary cultures; type: cell-based, human; conditions: for desmin positive cells as percentage of total cells: peptide alone, 10 ng/ml, serum-free defined media, mean±s.d.
From the text: as §1, §2, §3

[5] = tested on: normal lower limb (quadriceps) primary cultures; experiment: Desmin positive cell proliferation, normal lower limb (quadriceps) primary cultures; type: cell-based, human; conditions: for desmin positive cells as percentage of total cells: peptide alone, 10 ng/ml, mean±s.d.
From the text: as §1, with “The expanded cells were then stored under cryogenic conditions until they were used in the experiments described below. At least 6 runs were made for each of the treatments used for each diseased muscle culture as well as for the two types of healthy muscle.” left out
as §3

[6] = tested on: primary human muscle cell cultures; experiment: Creatine phosphokinase (CPK) assay of myogenic differentiation / myotube formation; type: cell-based; conditions: for effect on myoblast differentiation and myotube formation: differentiation medium, 48 hours, peptide alone (IGF-I 10 ng/ml)
Description: This assay was performed using previously published protocols [Auluck et al., 2005]. Measurement of CPK allows for the quantitative comparison of myogenesis [Goto et al., 1999], as it is a marker of myotube formation. The enzyme CPK catalyzes the reversible phosphorylation of adenosine-5-diphosphate (ADP) to form adenosine-5-triphosphate (ATP) and free creatine. The reaction may be followed in either direction by measuring the formation of inorganic phosphorus, an end-product of the reaction which is proportional to CPK activity. This was measured using the calorimetric method based on the generation of inorganic phosphate [Fiske and Subbarow, 1925] procedure. This was then expressed in terms of the protein content of the culture.
Previously expanded primary human muscle cell cultures were re-plated at 10×10^4 cells/well in 0.2% gelatin coated 96 well plates. […] (Sigma-Aldrich IGF-I ER2). After 48 hours, cells were washed twice with ice cold PBS and then stored frozen in 0.5 mM glycine buffer (pH 6.75) at −70° C. Fixed cells were lysed by rapid thawing and CPK assay kit used according to manufacturers instructions (Sigma-Aldrich). The protein concentration of each sample was determined against an albumin standard curve using the Pierce Micro BCA Kit (PerBio Science, UK Ltd., Northumberland, UK).

[7] = stabilised peptide in combination with IGF-I

Substance	desmin positive cells as percentage of total cells [1] [%]	desmin positive cells as percentage of total cells [2] [%]	percentage change in tetanic force (increase in muscle strength) [3]	desmin positive cells as percentage of total cells (muscle cells from FSHD) [%]	desmin positive cells as percentage of total cells ([4]; normal craniofacial) [%]	desmin positive cells as percentage of total cells [5] [%]	effect on myoblast differentiation and myotube formation [6]	effect on myoblast differentiation and myotube formation ([6]; listed as mature IGF-I)	desmin positive cells as percentage of total cells, IGF-I added [1, 7] [%]	desmin positive cells as percentage of total cells, plus anti-IGF-I receptor antibody Ab-1 ([1]; stabilised peptide plus Ab-1) [%]	desmin positive cells as percentage of total cells, IGF-I added [2, 7] [%]	desmin positive cells as percentage of total cells, plus anti-IGF-I receptor antibody Ab-1 ([2]; stabilised peptide plus Ab-1) [%]	desmin positive cells as percentage of total cells, IGF-I added (muscle cells from FSHD; [7]) [%]	desmin positive cells as percentage of total cells, IGF-I added ([4]; normal craniofacial, stabilised peptide in combination with IGF-I (10 ng/ml each)) [%]	desmin positive cells as percentage of total cells, plus anti-IGF-I receptor antibody Ab-1 ([4]; normal muscle, stabilised peptide plus Ab-1) [%]	desmin positive cells as percentage of total cells, IGF-I added [5, 7] [%]	effect on differentiation in the presence of 10 ng/ml IGF-I ([6]; stabilised peptide with 10 ng/ml IGF-I, dose-dependent)
IGF-I: IGF-I receptor binding domain encoded by Exons 3 and 4, common to all splice variants, approximately 70 amino acids [reference compound]	4.7±1.4	13.2±1.7	around 5%	14.1±1.6	58.4±4.2	47.1±3.5	apparently stimulates myotube formation	enhanced differentiation	–	–	–	–	–	–	–	–	–
stabilised peptide: SEQ ID NO: 15 with D-Arginine at positions 14 and 15, N-terminus attached to PEG (Jeffamine) via succinic acid bridge, amidated at C-terminus ({PEG (Jeffamine)-Suc}-YQPPSTNKNTKSQ[dR][dR]KGSTFEEHK-NH2; reading uncertain)	7.2±0.8	17.5±1.6	≤ 35%	20.4±2.1	68.8±3.9	57.9±3.2	no effect on myotube formation; also recorded: did not facilitate primary myoblast differentiation and myotube formation	–	5.3±1.0	6.5±0.8	13.1±1.2	16.7±1.8	14.5±1.4	59.5±4.2	71.1±6.2	38.8±0.6	prevented differentiation to the myoblast fusion competent stage

Source: US20060211606A1, “Peptides” (priority 2005, published 2006)
